Ends that are not written are not given here.
Key:
TRHR335 with OxR2 = experiment: eBRET/BRET: truncated TRHR335/Rluc + tagged beta-arrestin + OxR2 as IG3; type: cell-based
Description: Cells were seeded in 6-well plates at a density of approximately 630,000 cells/well (HEK293FT) or approximately 150,000 cells/well (COS-7) and maintained at 37° C., 5% CO2 in Complete Media (DMEM containing 0.3 mg/ml glutamine, 100 IU/ml penicillin and 100 μg/ml streptomycin (Gibco)) supplemented with 10% fetal calf serum (FCS; Gibco). Transient transfections were carried out 24 h after seeding using GeneJuice (Novagen) or Metafectene (Biontex) according to manufacturer instructions. 24 h post-transfection, cells were washed with PBS, detached using 0.05% trypsin/0.53 mM EDTA, resuspended in HEPES-buffered phenol red free Complete Media containing 5% FCS and added to a poly-L-lysine-coated white microplate (Nunc). 48 h post-transfection, eBRET assays were carried out following pre-incubation of cells with EnduRen™ (Promega) at a final concentration of 30-40 μM, at 37° C., 5% CO2 for 2 h. For original BRET studies, the HEPES-buffered phenol red free Complete Media was replaced with PBS and coelenterazine h (Molecular Probes) added to a final concentration of 5 μM immediately prior to commencing the assay. […] Filtered light emissions were sequentially measured for 3-5 s in each of the ‘donor wavelength window’ (400-475 nm) and ‘acceptor wavelength window’ (>500 nm for EGFP or 520-540 nm for EYFP, Topaz (TYFP) or Venus). The BRET signal observed between interacting proteins is normalized by subtracting the background BRET ratio. […] In the following examples, the first calculation will be used, unless the signal is described as the ‘ligand-induced BRET ratio’. […] In this case, data are shown as ‘fluorescence/luminescence’ being the ratio of light emission through the ‘acceptor wavelength window’ over the 400-475 nm emission for a particular cell sample. Unless otherwise stated, BRET signals were measured in 96-well microplates.
Referring now to FIG. 9, eBRET signals were measured from cells transiently co-expressing TRHR335/Rluc and EGFP/barr1 with either OxR2 or TRHR.

[1] = biological target: T1, thyrotropin releasing hormone receptor (TRHR) (Rattus norvegicus, UniProt Q01717); experiment: eBRET/BRET beta-arrestin recruitment to TRHR/Rluc without IG3 (pcDNA3) in HEK293 cells; type: cell-based
T1 construct: expressed in transfected cells; host or cells: HEK293 (HEK293FT)
T1 sequence (Q01717 1-412): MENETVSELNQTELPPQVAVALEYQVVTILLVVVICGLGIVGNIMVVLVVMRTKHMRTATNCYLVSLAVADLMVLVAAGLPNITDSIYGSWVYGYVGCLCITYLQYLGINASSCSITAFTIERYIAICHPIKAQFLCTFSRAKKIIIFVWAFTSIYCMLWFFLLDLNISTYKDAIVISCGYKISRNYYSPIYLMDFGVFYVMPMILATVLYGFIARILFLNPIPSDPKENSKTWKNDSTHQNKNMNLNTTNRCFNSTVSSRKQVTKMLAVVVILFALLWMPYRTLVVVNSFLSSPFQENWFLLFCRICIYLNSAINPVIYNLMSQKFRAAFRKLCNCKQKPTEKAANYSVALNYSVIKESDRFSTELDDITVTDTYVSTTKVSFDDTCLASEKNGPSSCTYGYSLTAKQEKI
Source text: Briefly, referring to FIGS. 1 to 3, the IGs are provided in the form of the two receptors (TRHR and OxR). One of the two is attached to an RC (IG1-RC1, IG3). A second IG (IG2-RC2) is derived from a molecule that interacts with the receptors upon ligand binding (e.g. beta-arrestin, or a mutant thereof). The detection system not only detects the formation of the TRHR-OxR heterodimer but can distinguish whether a ligand or drug acts as an agonist, partial agonist, antagonist, inverse agonist or partial inverse agonist at the receptor hetero-dimer.
Cells were seeded in 6-well plates at a density of approximately 630,000 cells/well (HEK293FT) or approximately 150,000 cells/well (COS-7) and maintained at 37° C., 5% CO2 in Complete Media (DMEM containing 0.3 mg/ml glutamine, 100 IU/ml penicillin and 100 μg/ml streptomycin (Gibco)) supplemented with 10% fetal calf serum (FCS; Gibco). Transient transfections were carried out 24 h after seeding using GeneJuice (Novagen) or Metafectene (Biontex) according to manufacturer instructions. 24 h post-transfection, cells were washed with PBS, detached using 0.05% trypsin/0.53 mM EDTA, resuspended in HEPES-buffered phenol red free Complete Media containing 5% FCS and added to a poly-L-lysine-coated white microplate (Nunc). 48 h post-transfection, eBRET assays were carried out following pre-incubation of cells with EnduRen™ (Promega) at a final concentration of 30-40 μM, at 37° C., 5% CO2 for 2 h. For original BRET studies, the HEPES-buffered phenol red free Complete Media was replaced with PBS and coelenterazine h (Molecular Probes) added to a final concentration of 5 μM immediately prior to commencing the assay. BRET measurements were taken at 37° C. using the Victor Light plate reader with Wallac 1420 software (Perkin-Elmer). Filtered light emissions were sequentially measured for 3-5 s in each of the ‘donor wavelength window’ (400-475 nm) and ‘acceptor wavelength window’ (>500 nm for EGFP or 520-540 nm for EYFP, Topaz (TYFP) or Venus). The BRET signal observed between interacting proteins is normalized by subtracting the background BRET ratio. This can be done in one of two ways (see Pfleger et al. (2006) Cell Signal 18, 1664-1670; Pfleger et al. (2006) Nat Protoc 1, 336-344): 1) the ratio of light emission through the acceptor wavelength window over the 400-475 nm emission for a cell sample containing only the donor construct is subtracted from the same ratio for a sample containing the interacting acceptor and donor fusion proteins; 2) the ratio of light emission through the ‘acceptor wavelength window’ over the 400-475 nm emission for a cell sample treated with vehicle is subtracted from the same ratio for a second aliquot of the same cell sample treated with ligand. In the following examples, the first calculation will be used, unless the signal is described as the ‘ligand-induced BRET ratio’. Alternatively, and particularly when illustrating z-factor data (Zhang et al. (1999) J Biomol Screen 4, 67-73), the BRET signal observed between interacting proteins can be shown in conjunction with (as oppose to being subtracted by) the background BRET ratio to evaluate error associated with the BRET signal observed between interacting proteins and the error associated with the background BRET ratio independently. In this case, data are shown as ‘fluorescence/luminescence’ being the ratio of light emission through the ‘acceptor wavelength window’ over the 400-475 nm emission for a particular cell sample. Unless otherwise stated, BRET signals were measured in 96-well microplates.
Referring now to FIG. 4, eBRET signals were measured from cells transiently co-expressing TRHR/Rluc and barr2/Venus with either pcDNA3, OxR2, CXCR2, HA-MC3R, HA-MC4R, D2LR or D2SR following the treatment of each with their respective ligands.
Referring now to FIG. 5, eBRET signals were measured from cells transiently co-expressing TRHR/Rluc and EGFP/barr1 or EGFP/barr2 with either pcDNA3 or OXR2. […]

[2] = TRHR335/Rluc + EGFP/barr1 + OxR2, FIG. 9
[3] = TRHR/Rluc only (no OxR2) + EGFP/barr1 or EGFP/barr2, FIG. 5

eBRET signal peak ([1]; HEK293, TRHR/Rluc + barr2/Venus + pcDNA3, ligand 10^−6M, 37 C, FIG. 4) | time to eBRET signal peak ([1]; HEK293, TRHR/Rluc + barr2/Venus + pcDNA3, ligand 10^−6M, FIG. 4) | dose-response Hill slope ([1]; TRHR/Rluc + barr2/Venus + pcDNA3, FIG. 10) | eBRET signal [1, 3] | eBRET signal with EGFP/barr1R169E relative to EGFP/barr1 ([1]; TRHR/Rluc only (no OxR2), FIG. 8) | cumulative eBRET signal ([1]; TRHR/Rluc + EGFP/barr1, 0 μg OxR2 DNA/well, 10^−6M OxA, 83 mins, FIG. 16) | effect of OxA on TRH-induced eBRET signal [1, 3] | Molecule | eBRET signal (TRHR335 with OxR2; [2]) | BRET signal (dose response) (TRHR335 with OxR2; TRHR335/Rluc + barr2/Venus + OxR2, FIG. 15) | eBRET signal ([1]; TRHR/Rluc only (no HA-OxR2), FIG. 7) | eBRET signal ([1]; TRHR/Rluc only (no OxR2) + EGFP/barr1 or EGFP/barr1R169E, FIG. 8) | time for eBRET signal to reach plateau (TRHR335 with OxR2; [2]) | eBRET signal ([1]; OxA added to cells lacking HA-OxR2, FIG. 7)
greater than 0.17 | Within the first minute | approximately 1 | rapid stimulation of the eBRET signal | lower than that for EGFP/barr1 |  |  | NC(=O)[C@@H]1CCCN1C(=O)[C@H](Cc1cnc[nH]1)NC(=O)[C@@H]1CCC(=O)N1 [TRH, pGlu-His-Pro-NH2] | no eBRET signal above baseline | does not result in a BRET signal | rapid increase in eBRET signal reaching a peak in the first few minutes | rapid increase in eBRET signal reaching a peak in the first few minutes |  | 
 |  |  |  |  | no signal was recorded | no difference | OxA: orexin A; known orexin receptor modulator, used as IG3 ligand (modulator) (QPLPDCCRQKTCSCRLYELLHGAGNHAAGILTL; ends and bridges not checked; cysteine pairing not given here; UniProt O43612 34-66, looked up) |  |  |  |  | about 20 minutes | No increase in eBRET signal above baseline

Reference: patent US20100234417A1, “THYROTROPIN RELEASING HORMONE RECEPTOR-OREXIN RECEPTOR HETERO-DIMERS/-OLIGOMERS” (DIMERIX BIOSCIENCE PTY LTD., priority 2006, published 2010)
